Structures can show the parent of a compound that is named as a salt.

For this test, the target named is hERG (Homo sapiens, UniProt Q12809). The experiment in a line: cell-based. To be noted: (-LOG10(IC50), µM).
hERG, sequence (Q12809 whole entry): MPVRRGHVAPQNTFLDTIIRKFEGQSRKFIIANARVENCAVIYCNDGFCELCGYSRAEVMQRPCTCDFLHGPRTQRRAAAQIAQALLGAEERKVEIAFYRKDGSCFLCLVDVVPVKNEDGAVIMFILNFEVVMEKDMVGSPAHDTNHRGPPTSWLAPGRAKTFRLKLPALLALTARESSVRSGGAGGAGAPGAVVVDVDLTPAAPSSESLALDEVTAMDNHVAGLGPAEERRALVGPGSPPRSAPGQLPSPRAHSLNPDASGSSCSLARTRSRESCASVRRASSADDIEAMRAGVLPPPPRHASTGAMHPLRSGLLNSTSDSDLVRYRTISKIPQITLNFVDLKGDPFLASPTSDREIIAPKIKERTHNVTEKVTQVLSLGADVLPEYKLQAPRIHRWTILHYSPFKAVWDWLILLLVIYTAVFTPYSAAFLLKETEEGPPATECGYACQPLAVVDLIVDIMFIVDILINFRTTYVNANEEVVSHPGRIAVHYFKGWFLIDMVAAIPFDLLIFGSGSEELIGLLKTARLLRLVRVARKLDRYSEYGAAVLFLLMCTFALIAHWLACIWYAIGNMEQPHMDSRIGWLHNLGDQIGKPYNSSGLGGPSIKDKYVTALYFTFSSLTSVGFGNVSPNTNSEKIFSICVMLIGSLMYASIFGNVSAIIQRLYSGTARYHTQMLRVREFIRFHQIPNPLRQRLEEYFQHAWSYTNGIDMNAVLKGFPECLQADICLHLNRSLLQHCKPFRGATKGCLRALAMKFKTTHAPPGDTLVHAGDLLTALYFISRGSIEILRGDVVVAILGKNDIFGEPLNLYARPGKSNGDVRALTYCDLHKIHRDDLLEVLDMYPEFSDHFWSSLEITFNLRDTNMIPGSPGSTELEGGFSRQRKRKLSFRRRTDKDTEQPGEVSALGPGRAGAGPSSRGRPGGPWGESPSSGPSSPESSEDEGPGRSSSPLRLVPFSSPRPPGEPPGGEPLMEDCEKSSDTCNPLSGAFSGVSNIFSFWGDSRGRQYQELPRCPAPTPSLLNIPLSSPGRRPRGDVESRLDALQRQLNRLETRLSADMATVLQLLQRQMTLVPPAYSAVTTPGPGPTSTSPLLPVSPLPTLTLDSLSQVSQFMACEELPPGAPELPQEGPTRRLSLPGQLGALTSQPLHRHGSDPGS
For `C#CCN(C)CCCOc1ccc(Cl)cc1Cl` [N-Methyl-N-propargyl-3-(2,4-dichlorophenoxy)propylamine hydrochloride], half-maximal inhibition (IC50) required 8.82 µM. To `CCCCCCCCN(C)CCCCCCCC` [N-Methyldioctylamine] belongs 3.25 µM; to `c1ccc(Nc2cccc3ccccc23)cc1` [N-Phenyl-1-naphthylamine], 33.4 µM; to `CCCCCCCCCCCC(=O)NCCCN(C)C` [N-[3-(Dimethylamino)propyl]dodecanamide], 14.3 µM. As for `O=C(N[C@@H]1N=C(c2ccccc2F)c2cccc3c2N(CC3)C1=O)c1cc2ccccc2[nH]1` [N-[(3R)-1-(2-Fluorophenyl)-4-oxo-3,4,6,7-tetrahydro[1,4]diazepino[6,7,1-hi]indol-3-yl]-1H-indole-2-carboxamide], the figure is 8.82 µM. Take `CCN(CC)CCOC(=O)C(Cc1cccc2ccccc12)CC1CCCO1` (stereo not shown) [Nafronyl oxalate]: it took 8.99 µM to reach half-maximal inhibition (IC50). To `COc1ccccc1N1CCN(CC(O)COc2cccc3ccccc23)CC1` (stereo not shown) [Naftopidil] belongs 1.69 µM; to `C[C@]12CC[C@H]3[C@@H](CCC4=CC(=O)CC[C@@H]43)[C@@H]1CC[C@@H]2OC(=O)CCC1CCCCC1` [Nandrolone cyclohexylpropionate], 15.1 µM; to `C[C@]12CC[C@H]3[C@@H](CCC4=CC(=O)CC[C@@H]43)[C@@H]1CC[C@@H]2OC(=O)CCc1ccco1` [Nandrolone furylpropionate], 12 µM. As for `C[C@]12CC[C@H]3[C@@H](CCC4=CC(=O)CC[C@@H]43)[C@@H]1CC[C@@H]2OC(=O)CCc1ccccc1` [Nandrolone phenpropionate], the figure is 12.5 µM. Compound `CCc1nn(CCCN2CCN(c3cccc(Cl)c3)CC2)c(=O)n1CCOc1ccccc1` [Nefazodone hydrochloride] showed an IC50 of 1.57 µM. Take `COc1ccc(S(=O)(=O)N2C(=O)[C@@](c3ccccc3OC)(N3C[C@H](O)C[C@H]3C(=O)N(C)C)c3cc(Cl)ccc32)c(OC)c1` [Nelivaptan]: the half-maximal inhibitory concentration (IC50) is 54.9 µM.

Consider `CC(C)(COC(=O)c1ccccc1)COC(=O)c1ccccc1` [Neopentyl glycol dibenzoate], for which the concentration for half-maximal inhibition (IC50) is 13.8 µM. To `C=CC(C)(O)CCC=C(C)CCC=C(C)C` (stereo not shown) [Nerolidol] belongs 47.1 µM; to `CCCCCOc1ccccc1/C(=C\SC)n1ccnc1` [Neticonazole], 20.5 µM; to `CO[C@]12C[C@@H](COC(=O)c3cncc(Br)c3)CN(C)[C@@H]1Cc1cn(C)c3cccc2c13` [Nicergoline], 1.45 µM. `CNCCC(Oc1ccccc1OC)c1ccccc1` (stereo not shown) [Nisoxetine]: half-maximal inhibition (IC50) was put at 9.52 µM. To `O=[N+]([O-])c1ccc(Oc2ccc(Cl)cc2Cl)cc1` [Nitrofen] belongs 18.9 µM; to `CC(C)OC(=O)c1cc(C(=O)OC(C)C)cc([N+](=O)[O-])c1` [Nitrothal-isopropyl], 40.6 µM; to `N=C(N)NN=C(/C=C/c1ccc([N+](=O)[O-])o1)/C=C/c1ccc([N+](=O)[O-])o1` [Nitrovin], 2.3 µM. To `CCN(CC)Cc1nccn1-c1ccc([N+](=O)[O-])cc1C(=O)c1ccccc1Cl` [Nizofenone fumarate] belongs 6.74 µM. With `CN1Cc2c(N)cccc2C(c2ccccc2)C1` (stereo not shown) [Nomifensine], the 50% inhibitory concentration (IC50) was 38.9 µM. As for `CCC(=O)C(CCN(C)C)(c1ccccc1)c1ccccc1` [Normethadone], the figure is 15.1 µM; as for `CC(CCc1ccccc1)NC(C)C(O)c1ccc(O)cc1` (stereo not shown) [Nylidrin], 5.56 µM. As for `CCCCCCCCn1sccc1=O` [Octhilinone], the figure is 27.6 µM; as for `CN1CCN(C2Cc3ccccc3Sc3ccc(Cl)cc32)CC1` (stereo not shown) [Octoclothepine maleate], 0.849 µM. As for `CC(C)(C)CC(C)(C)c1ccc(O)c(-n2nc3ccccc3n2)c1` [Octrizole], the figure is 14.5 µM.

In turn, `CCCCC(CC)CN1C(=O)C2C3C=CC(C3)C2C1=O` (stereo not shown) [Octylbicycloheptenedicarboximide] gave an IC50 of 49 µM.

Consider `C/C(=C(/OCCOc1ccc(Cl)cc1)c1ccc(Cl)cc1Cl)n1ccnc1` [Omoconazole], for which the half-inhibitory concentration (IC50) is 8.17 µM. To `CC(C)Oc1cc(-n2nc(C(C)(C)C)oc2=O)c(Cl)cc1Cl` [Oxadiazon] belongs 44.7 µM. As for `C[N+]1(CC2COC(c3ccccc3)(C3CCCCC3)O2)CCCCC1` (stereo not shown) [Oxapium iodide], the figure is 14 µM; as for `O=c1[nH]c2ccccc2n1CCCN1CCN(C(c2ccccc2)c2ccccc2)CC1` [Oxatomide], 0.442 µM. `CCOc1cc(Oc2ccc(C(F)(F)F)cc2Cl)ccc1[N+](=O)[O-]` [Oxyfluorfen] gave an IC50 of 21.9 µM. `CN1CCCN=C1COC(=O)C(O)(c1ccccc1)C1CCCCC1` (stereo not shown) [Oxyphencyclimine hydrochloride] gave an IC50 of 5.15 µM.

For the compound `Cc1cc(CCN2CCN(c3nsc4ccccc34)CC2)cc2c1NC(=O)CC2(C)C` [PD 0343701], the IC50 is 16.1 µM.

In the case of `COc1ccnc(C[S+]([O-])c2nc3ccc(OC(F)F)cc3[nH]2)c1OC` (stereo not shown) [Pantoprazole sodium], the IC50 is 49.3 µM. To `OC(c1ccc(Cl)cc1)(c1ccc(Cl)cc1)c1cccnc1` [Parinol] belongs 20.3 µM; to `O=C(Nc1ccccc1)N(Cc1ccc(Cl)cc1)C1CCCC1` [Pencycuron], 33.4 µM. To `OC1(c2ccc(Cl)c(C(F)(F)F)c2)CCN(CCCC(c2ccc(F)cc2)c2ccc(F)cc2)CC1` [Penfluridol] belongs 0.239 µM; to `CCCCCC1Nc2cc(C(F)(F)F)c(S(N)(=O)=O)cc2S(=O)(=O)N1` (stereo not shown) [Penflutizide], 23 µM; to `BrC(Br)C(Br)(Br)Br` [Pentabromoethane], 49.3 µM. For the compound `CCCN1C[C@H](CSC)C[C@@H]2c3cccc4[nH]cc(c34)C[C@H]21` [Pergolide methanesulfonate], half-maximal inhibition (IC50) required 7.56 µM. As for `O=C1[C@H]2CCCC[C@H]2C(=O)N1CCCCN1CCN(c2nsc3ccccc23)CC1` [Perospirone hydrochloride], the figure is 8.49 µM. To `CCc1cc(SCc2sc(-c3ccc(C(F)(F)F)cc3)nc2CN2CCN(c3ccc(OC)cc3)CC2)ccc1OCC(=O)O` [PharmaGSID_47315] belongs 3.34 µM; to `O=C1c2ccccc2C(=O)N1CCc1noc(-c2ccc(CN3CCCCCC3)s2)n1` [PharmaGSID_48172], 23.4 µM. To `Cc1[nH]nc2c1N=C(c1ccccc1Cl)c1cc([N+](=O)[O-])ccc1N2` [PharmaGSID_48505] belongs 11.4 µM; to `CN1C(=O)N(c2ccccc2Br)Cc2cnc(Nc3ccc4c(c3)OCC(CO)O4)nc21` (stereo not shown) [PharmaGSID_48519], 43.6 µM. `CCCC[C@H]1CN(CC2CCOCC2)C(=O)OC12CCN(C1(C)CCN(C(=O)c3c(C)ncnc3C)CC1)CC2` [PharmaGSID_48521] showed an IC50 of 13.6 µM. Take `O=C(C=Cc1ccccc1)OCCc1ccccc1` [Phenethyl cinnamate]: the IC50 is 36 µM. Compound `S=C=NCCc1ccccc1` [Phenethyl isothiocyanate] gave an IC50 of 16.8 µM.

Compound `c1ccc2c(c1)Oc1ccccc1S2` [Phenoxathiin] showed an IC50 of 24.5 µM. To `O=C(Oc1ccccc1)c1ccc2ccccc2c1O` [Phenyl 1-hydroxy-2-naphthoate] belongs 49 µM.

The compound `CN(C)CCOc1ccccc1Cc1ccccc1` [Phenyltoloxamine citrate] showed an IC50 of 8.49 µM. Compound `CCOP(=S)(OCC)SCn1c(=O)oc2cc(Cl)ccc21` [Phosalone] had a concentration for half-maximal inhibition (IC50) of 23.5 µM. In the case of `CN1CCC(=C2c3ccccc3Sc3ccccc32)CC1` [Pimethixene maleate], half-maximal inhibition (IC50) required 9.89 µM. Compound `COc1cc2c(cc1OC)C(C(C(=O)N(CCc1ccc(OC)c(OC)c1OC)CCc1ccc(OC)c(OC)c1OC)c1ccccc1)=NCC2` (stereo not shown) [Pinokalant hydrochloride] gave an IC50 of 20.1 µM. As for `NC(=O)C1(N2CCCCC2)CCN(CCCC(=O)c2ccc(F)cc2)CC1` [Pipamperone dihydrochloride], the figure is 20.1 µM; as for `CC(=O)c1ccc2c(c1)N(CCCN1CCC(CCO)CC1)c1ccccc1S2` [Piperacetazine], 2.39 µM. To `CCCCCCCC[S+]([O-])C(C)Cc1ccc2c(c1)OCO2` (stereo not shown) [Piperonyl sulfoxide] belongs 38.2 µM; to `O=C1OC(CCN2CCCCC2)OC1(c1ccccc1)c1ccccc1` (stereo not shown) [Pipoxolan hydrochloride], 1.25 µM; to `Cc1nc2ccccn2c(=O)c1CCN1CCC(C(=O)c2ccc(F)cc2)CC1` [Pirenperone], 6.74 µM.

In turn, `CCN(CC)c1nc(C)cc(OP(=S)(OC)OC)n1` [Pirimiphos-methyl] had an IC50 of 50.9 µM. As for `CN1CCC(=C2c3ccccc3CCc3sccc32)CC1` [Pizotyline], the figure is 10.3 µM; as for `CCCCCCCCCCCCOCCOCCOCCOCCOCCOCCOCCOCCOCCO` [Polyoxyethylene (9) lauryl ether], 21.3 µM; as for `CN1C(CSCC(F)(F)F)Nc2cc(Cl)c(S(N)(=O)=O)cc2S1(=O)=O` (stereo not shown) [Polythiazide], 19.7 µM.

In turn, `CC[C@@H]([C@H](C)O)n1ncn(-c2ccc(N3CCN(c4ccc(OC[C@@H]5CO[C@@](Cn6cncn6)(c6ccc(F)cc6F)C5)cc4)CC3)cc2)c1=O` [Posaconazole] had an IC50 of 12.9 µM.

In turn, `NC(=O)c1nc(-c2cccc(-c3cc(F)ccc3OCC(F)(F)C(F)(F)F)c2)n[nH]1` [Potassium 5-carbamoyl-3-[5'-fluoro-2'-(2,2,3,3,3-pentafluoropropoxy)-3-biphenylyl]-1,2,4-triazol-1-ide hydrate (1:1:1)] had a 50% inhibitory concentration (IC50) of 47.1 µM. To `O=C(N[C@H]1N=C(c2ccccc2F)c2cccc3c2N(CC3)C1=O)c1cc2ccccc2[nH]1` [Pranazepide] belongs 7.86 µM; to `O=C1CN=C(c2ccccc2)c2cc(Cl)ccc2N1CC1CC1` [Prazepam], 23 µM. To `CC[N+]1(CC)CCC(=C(c2ccccc2)c2ccccc2)C1C` (stereo not shown) [Prifinium bromide] belongs 20.5 µM; to `CCCC(C(=O)OCCN(CC)CC)(c1ccccc1)c1ccccc1` [Proadifen hydrochloride], 7.28 µM. With `CCCN(CCOc1c(Cl)cc(Cl)cc1Cl)C(=O)n1ccnc1` [Prochloraz], the IC50 was 20.3 µM. To `CCCN(CCC)c1c([N+](=O)[O-])cc(C(F)(F)F)c(N)c1[N+](=O)[O-]` [Prodiamine] belongs 37.3 µM.

Values taken from article PMC8869358, “High-Throughput Chemical Screening and Structure-Based Models to Predict hERG Inhibition” (Biology, 2022).
